Test results: patent publication US7667052B2 (Eisai R&D Management Co., Ltd., priority 2003, dated 2010)
In brackets after ≈: the same amount, converted by molar mass. Like-named read-outs stand apart in the source and are kept apart here.

Columns and labels:
[1] = tested on: VEGF production in WiDr human colon cancer cell; assay: VEGF production suppressing action in various carcinoma cells, ELISA; type: cell-based; conditions: low oxygen 18 hours
Experimental: WiDr human colon cancer cell, PC3 human prostate cancer cell, DU145 human […] cancer cell and HT1080 human […] cancer cell, which were cultured in DULBECCO-modified eagle medium (manufactured by DMEM SIGMA Co., Ltd.) containing 10% fetal calf serum, penicillin (100 unit/ml) and streptomycin (100 μg/ml) were dispensed in 96 well plates by 3×10^4 cells/well. After culturing at 37° C. overnight in a CO2 incubator (5% CO2), the media were removed, and 180 μl of the above-mentioned incubation solution was charged. After adding 20 μL of the above-mentioned incubation solution containing the test compound diluted with 3-fold succession, they were incubated in a low oxygen ([…]) incubator for 18 hours. The supernatants thereof were measured by an ELISA kit (Immunobiology Research Institute).
Concentration at which the amount of VEGF expressed by low oxygen stimulation was suppressed to 50% (IC50 value) was determined and results are shown in Table 10.

[2] = tested on: transcription from VEGF promoter; assay: VEGF transcription-suppressing activity, VEGF-PLAP reporter in U251/1-8 cell; type: cell-based; conditions: Homo sapiens, U-251, U251/1-8 cell, PLAP activity, low oxygen 18 hours
Outline: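 U251 glioma clone stably carrying a ~2.3 kb human VEGF promoter–secreted PLAP reporter, 4×10^4 cells/well, exposed to 3-fold dilutions of compound for 18 h under low oxygen. Supernatant PLAP read by chemiluminescence at pH 10.0; IC50 = 50% suppression, normoxia 0%, hypoxia 100%.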

[3] = tested on: U937 human histcytic lymphoma; assay: Growth suppressing activity to leukemia cell, Alamar Blue; type: cell-based; conditions: U-937, 72 h, U937, 3 days, read-out: Multiplication suppressing activity IC50
Experimental: (§1) Dami human blood megakaryocytic cell, MOLT 4 human acute lymphoblastic cell, K562 human chronic myelogenous cell, U937 human histcytic lymphoma and p388 mouse lymphoma cultured in RPMI 1640 (manufactured by SIGMA Co., Ltd.) containing 10% fetal calf serum were dispensed in 96-well plates by 2×10^3 cells/180 μl, and they were cultured at 37° C. overnight in a CO2 incubator (5% CO2). Then, 20 μL of the above-mentioned incubation solution containing 11107B diluted with 2-fold succession was added, and they were further cultured in a CO2 incubator for 3 days.
(§2) 20 μL of Alamar Blue reagent (Biosource Co.) was added to the cultured cell, and fluorescence activity (ex 530 nm/em 590 nm) was measured by a micro plate reader (ARBO, Perkin-Elmer Co.) after 3 to 5 hours. The cell growth of the control to which the compound is not added is set as 100%, the concentration at which it was suppressed by 50% was determined.

[4] = tested on: Dami human blood megakaryocytic cell; assay: as above; type: cell-based; conditions: 72 h, 3 days, read-out: Multiplication suppressing activity IC50
Experimental: as §1, §2

p388 mouse lymphoma = assay: as above; type: cell-based; conditions: 72 h, p388, 3 days, read-out: Multiplication suppressing activity IC50
Experimental: as §1, §2

[5] = tested on: MOLT 4 human acute lymphoblastic cell; assay: as above; type: cell-based; conditions: MOLT-4, 72 h, MOLT4, 3 days, read-out: Multiplication suppressing activity IC50
Experimental: as §1, §2

[6] = tested on: K562 human chronic myelogenous cell; assay: as above; type: cell-based; conditions: 72 h, K562, 3 days, read-out: Multiplication suppressing activity IC50
Experimental: as §1, §2

[7] = tested on: human breast cancer BSY-1 cell; assay: Solid cancer proliferation suppressing action, subcutaneous transplant; type: in vivo, mice; conditions: single administration, 10 mg/kg intravenous
Experimental: In order to study solid cancer proliferation suppressing action of 11107B in vivo, human breast cancer BSY-1 cell was transplanted to the subcutaneous body sides of mice. The animals were grouped so that the average of the volumes of the respective groups became uniform, when it reached about 100 mm^3. Control group was made as 10 mice and 11107B-administering groups were made as 5 mice. 11107B was administrated for the 11107B-administering groups once by intravenous injection so as to be 10 mg/kg, and a vehicle was administered to the control group. The tumor volumes on the fifth day, eighth day, 12th day and 15th day were measured, and relative tumor volumes were determined setting the tumor volume at the initiation of administration as 1.

Compound `CCC(O)C(C)C1OC1CC(C)/C=C/C=C(\C)C1OC(=O)CC(O)CCC(C)(O)C(OC(C)=O)/C=C/C1C` (stereo not drawn) [11107B] has an IC50 [1] of 0.65 ng/mL (≈ 1.21 nM), an IC50 ([2]; read-out: IC50 values of VEGF transcription-suppressing activity (range given)) of 1 to 100 nM and an IC50 ([2]; read-out: VEGF transcription suppressing activity (IC50: nM)) of 1.8 nM. It also gave an IC50 [3] of 1.1 nM, an IC50 [4] of 1.2 nM and an IC50 (p388 mouse lymphoma) of 2 nM. The IC50 [5] was 1.5 nM, the IC50 [6] was 2.1 nM and the “solid tumor suppression, in words” value [7] was “showed the effect of suppressing solid tumor”.
